The structures appear in SMILES notation.

Common to all, as to type: in vivo
In test [1] the test system is Puccinia recondita-tritici (PUCCRT). Kind of test: Control of wheat brown rust, one-day protective (1DP) application, greenhouse. Particulars: for A % DC: component A alone; for B % DC: component B alone. On the procedure:
(§1) For the mixture studies with compound of Formula I: Treatments consisted of fungicides, including a compound of Formula I, tebuconazole, propiconazole, metconazole, and cyproconazole, applied either individually or as two-way mixtures with a compound of Formula I. Technical grades of materials were dissolved in acetone to make stock solutions which were used to perform three-fold dilutions in acetone for each individual fungicide component or for the two-way mixtures. Desired fungicide rates were obtained after mixing dilutions with nine volumes of water containing 110 parts per million (ppm) Triton X-100. The fungicide solutions (10 milliliters (mL)) were applied onto six pots of plants using an automated booth sprayer, which utilized two 6218-1/4 JAUPM spray nozzles operating at 20 pounds per square inch (psi) set at opposing angles to cover both leaf surfaces. All sprayed plants were allowed to air dry prior to further handling. Control plants were sprayed in the same manner with a solvent blank.
(§2) For the one-day protectant experiments, the plants were inoculated with an aqueous spore suspension of the pathogen of interest (either PUCCRT or SEPTTR) and then placed in a dew room from 1-3 days to allow for infection to occur. The plants were then placed in the greenhouse for symptom development to occur. In the case of PUCCRT, symptoms typically appeared in 7-10 days while for SEPTTR symptoms typically appeared in 25-30 days.
(§3) When disease severity reached 50-100% on the control plants, infection levels were assessed on treated plants visually and scored on a scale of 0 to 100 percent. The percentage of disease control was then calculated using the ratio of disease on treated plants relative to control plants.
(§4) The Colby equation was used to determine the fungicidal effects expected from the mixtures. (See Colby, S. R. Calculation of the synergistic and antagonistic response of herbicide combinations, Weeds 1967, 15, 20-22.). More specifically, in Tables 1-5, Colby's equation was used to calculate the expected activity of mixtures containing two active ingredients, A and B: Expected=A+B−(A×B/100), wherein

The test system is the same in test [2]. Kind of test: Control of wheat brown rust, three-day curative (3DC) application, greenhouse. The following applies: for A % DC: component A alone; for B % DC: component B alone. On the procedure: as §1
(§5) For the three-day curative experiments, plants were inoculated with an aqueous spore suspension of the pathogen of interest (either PUCCRT or SEPTTR) and then placed in a dew room from 1-3 days to allow for infection to occur. The plants were removed from the dew room, allowed to dry for approximately one hour (h), sprayed with the test materials formulated as described above, and then placed in the greenhouse for symptom development to occur as described previously.
as §3, §4

Test [3] relates to Septoria tritici (SEPTTR). As to the kind of experiment: Control of wheat leaf blotch, one-day protective (1DP) application, greenhouse. The following applies: for A % DC: component A alone; for B % DC: component B alone. How it is done: as §1, §2, §3, §4
The test system of test [4] is Septoria tritici (SEPTTR). Kind of test: Control of wheat leaf blotch, three-day curative (3DC) application, greenhouse. Particulars: for A % DC: component A alone; for B % DC: component B alone. How it is done:
as §1, §5, §3, §4

Test [5] relates to Puccinia recondita-tritici (PUCCRT). As to the kind of experiment: Control of wheat brown rust in a field research trial. Particulars: for B % DC: component B alone. How it is done:
as §4
The field trial was conducted at the Dow AgroSciences field station located at Mogi Mirim, Brazil. There were four replicate plots per treatment, with each plot 2×3.5 meters in length and width. The plots were sprayed with the treatments twice, once at growth stage BBCH 33 and again at growth stage BBCH 61-65. Treatments were applied with spray volumes of 150 liters/hectare (L/ha) with an XR flat fan nozzle. Disease development relied on natural inoculum (no artificial infestation). Ten plants per plot were used for each disease severity assessment, with all leaves per plant used for the assessment.

For the compound `COc1ccnc(C(=O)N[C@H]2COC(=O)[C@H](Cc3ccccc3)[C@@H](OC(=O)C(C)C)[C@H](C)OC2=O)c1OCOC(=O)C(C)C` [Cmpd I, (3S,6S,7R,8R)-8-benzyl-3-(3-((isobutyryloxy)methoxy)-4-methoxypicolinamido)-6-methyl-4,9-dioxo-1,5-dioxonan-7-yl isobutyrate], the “A % DC” value in test [1] (0.4 ppm) came to 0%; in test [1] (1.6 ppm), 19.6%; in test [1] (6.3 ppm), 85.5%; in test [2] (0.1 ppm), 0%; in test [2] (0.4 ppm), 0%; in test [2] (1.6 ppm), 0%. For the same compound, the “A % DC” value in test [2] (6.3 ppm) amounted to 0%; in test [3] (0.1 ppm) it was 7%; in test [3] (0.4 ppm), 19%; in test [3] (1.6 ppm), 53%; in test [4] (0.1 ppm), 45.3%; in test [4] (1.6 ppm) it was 55.2%. Further, the “A % DC” value in test [4] (6.3 ppm) came out at 70.1%; in test [5] (component A alone, 150 g ai/ha), 34.1%.

On to `CC(C1CC1)C(O)(Cn1cncn1)c1ccc(Cl)cc1` (stereo not drawn) [Cyproconazole, α-(4-chlorophenyl)-α-(1-cyclopropylethyl)-1H-1,2,4-triazole-1-ethanol], for which the “B % DC” value came out at 0% in test [1] (0.1 ppm); 0% in test [1] (0.4 ppm); 27% in test [1] (1.6 ppm); 57% in test [1] (6.3 ppm); 82% in test [2] (0.4 ppm); 9% in test [3] (0.4 ppm). Besides, the “B % DC” value in test [3] (1.6 ppm) came out at 19%; in test [4] (0.1 ppm), 44.0%; in test [5] (40 g ai/ha), 38%.

For the compound `CC1(C)CCC(Cc2ccc(Cl)cc2)C1(O)Cn1cncn1` (centres unmarked) [Metconazole, 5-[(4-chlorophenyl)methyl]-2,2-dimethyl-1-(1H-1,2,4-triazol-1-ylmethyl)cyclopentanol], the “B % DC” value is 0% in test [1] (0.4 ppm); 8% in test [1] (1.6 ppm); 87% in test [1] (6.3 ppm); 4% in test [2] (0.4 ppm); 9% in test [3] (0.1 ppm).

For the compound `CCCC1COC(Cn2cncn2)(c2ccc(Cl)cc2Cl)O1` (centres unmarked) [Propiconazole, 1-[[2-(2,4-dichlorophenyl)-4-propyl-1,3-dioxolan-2-yl]methyl]-1H-1,2,4-triazole], the “B % DC” value was 0% in test [1] (0.1 ppm); 0% in test [1] (1.6 ppm); 0% in test [1] (6.3 ppm); 2% in test [2] (1.6 ppm); 93% in test [2] (6.3 ppm); 0% in test [3] (0.1 ppm). The “B % DC” value in test [3] (1.6 ppm) amounted to 29%; in test [3] (6.3 ppm), 68%.

Consider `COC(=O)N(OC)c1ccccc1COc1ccn(-c2ccc(Cl)cc2)n1` [Pyraclostrobin, pyraclostrobin], for which, in test [5] (60 g ai/ha), the “B % DC” value is recorded as 85.8%.

Take `CC(C)(C)C(O)(CCc1ccc(Cl)cc1)Cn1cncn1` (stereo not drawn) [Tebuconazole, α-[2-(4-chlorophenyl)ethyl]-α-(1,1-dimethylethyl)-1H-1,2,4-triazole-1-ethanol]: the “B % DC” value in test [1] (0.1 ppm) came out at 0%; in test [1] (0.4 ppm), 0%; in test [1] (1.6 ppm), 18%; in test [1] (6.3 ppm), 82%; in test [2] (0.4 ppm) it was 2%; in test [2] (1.6 ppm), 87%. Further, the “B % DC” value was determined as 0% in test [3] (0.4 ppm), 34% in test [3] (1.6 ppm), 23.0% in test [4] (0.1 ppm) and 74.3% in test [5] (140 g ai/ha).

The values above are taken from patent US9750248B2, “Synergistic fungicidal compositions” (Dow AgroSciences LLC, priority 2012, dated 2017).
